According to US20180079906A1, “AZACYANINE DYES AND USE THEREOF” (Ecole Polytechnique Fédérale de Lausanne (EPFL), priority 2016, published 2018):

Legend:
[1] = test system: skin tissue of a nude mouse; experiment: Ex vivo cell death assay by cryogenic tissue damage (imaging necrosis); conditions: for fluorescence at the site of focal dry-ice treatment: cryogenic tissue damage, 1, 5, 10 uM dye, 10 min at room temperature
Text: Ex vivo cell death assay for compounds, VI and XIV were studied using a method of cryogenic tissue damage. […] After gentle washing with PBS, the samples were scanned for fluorescence using an IVIS Spectrum imaging system (FIG. 18-19).

mastocytoma tumor = experiment: Fluorescence image-guided surgery of mastocytoma tumor in dogs; format: in vivo, dog
Description: A kuvasz dog (male, 30 kg) diagnosed with mastocvtoma tumor on his right leg was used for image guided surgery study. All canine studies were performed at Veterinair Verwijscentrum Gouda, Netherlands. Canine was injected intravenous catheterization into the cephalic vein with fluorescence probe XXI (180 nmol/kg) 6h prior to surgery. Canine underwent to general anesthesia prior to surgery. Image guided cancer surgery was performed using Solaris Open-air Fluorescence Imaging System (Perkin Elmer), equipped with four fluorescent channels (470 nm, 660 nm, 750 nm and 800 nm) to obtain real-time visualization of tumor imaging in ambient light (FIGS. 13-15).
A labrador dog (male, 33 kg) diagnosed with mastocytoma tumor on his nose was used for image guided surgery study. All canine studies were performed at Veterinair Verwijscentrum Gouda, Netherlands. Canine was injected intravenous catheterization into the cephalic vein with fluorescence probe XXI (92 nmol/kg) 10 h prior to surgery. Canine underwent to general anesthesia prior to surgery. Image guided cancer surgery was performed using Solaris Open-air Fluorescence Imaging System (Perkin Elmer), equipped with four fluorescent channels (470 nm, 660 nm, 750 nm and 800 nm) to obtain real-time visualization of tumor imaging in ambient light (FIGS. 16-17).

4T1-luc2 tumors = experiment: In vivo NIR fluorescence imaging of subcutaneous 4T1 tumors in nude mice
Description: Female nude mice 6-8 weeks of age were injected with […] of 4T1 cells in 100 ul of PBS subcutaneously into the right flank. Once the tumors reached approximately 0.5 cm^3 in size, animals were injected with 20 nmol of the imaging probe XXI intravenously in 100 ul of PBS. Mice were then imaged at different time points using IVIS Spectrum instrument (Perkin Elmer) at recommended settings 745/810 nm excitation/emission (FIGS. 11-12).

[2] = in methanol, calibration standard; cited from earlier work
[3] = cited from earlier work
[4] = 30 kg dog, 180 nmol/kg I.V., 6h after injection

CC1(C)C2=CC=CN(CCCCCC(=O)O)C2=N/C1=C/C=C1\C[N+](C)(C)CC(/C=C/C2=Nc3c(ccc[n+]3CCCCCC(=O)O)C2(C)C)=C1Cl [Dye VI]
fluorescence signal from viable cells ([1]; cryogenic tissue damage): no signal | fluorescence at the site of focal dry-ice treatment [1]: strong fluorescence signal

CC1(C)C2=CC=CN(CCCCCC(=O)O)C2=N/C1=C/C=C1\C[N+](C)(C)CC(/C=C/C2=Nc3c(ccc[n+]3CCCCCC(=O)O)C2(C)C)=C1Oc1ccc(S(=O)(=O)O)cc1.[Na+] [Dye XIV]
fluorescence at the site of focal dry-ice treatment [1]: strong accumulation of fluorescence

CC1(C)C2=CC=CN(CCCCCC(=O)NCCCC[C@@H]3NC(=O)[C@@H](Cc4ccccc4)NC(=O)[C@H](CC(=O)O)NC(=O)CNC(=O)[C@H](CCCNC(=N)N)NC3=O)C2=N/C1=C/C=C1\C[N+](C)(C)CC(/C=C/C2=Nc3c(ccc[n+]3CCCCCC(=O)NCCCC[C@H]3NC(=O)[C@H](Cc4ccccc4)NC(=O)[C@@H](CC(=O)O)NC(=O)CNC(=O)[C@@H](CCCNC(=N)N)NC3=O)C2(C)C)=C1Oc1ccc(S(=O)(=O)O)cc1.[Na+] [Dye XXI]
background uptake in normal tissue (mastocytoma tumor; [4]): negligible | identification of tumor by fluorescence in vivo (mastocytoma tumor; [4]): clearly identified | time post injection of highest accumulation in the tumor tissue (mastocytoma tumor; dogs): ≤ 6 h | time post injection of optimal background/noise ratio calculated from the region of interest (4T1-luc2 tumors; 4T1 tumour bearing mice): 2 h | tumor uptake (kinetics and specificity) (4T1-luc2 tumors; subcutaneous tumors in mice): faster and more specific tumor uptake | time post injection at which optimal background to noise ratio is achieved (4T1-luc2 tumors; subcutaneous tumors in mice, intravenous injection): 2 h

CC1(C)C(/C=C/C=C/C=C/C=C2\N(CCCCS(=O)(=O)O)c3ccc4ccccc4c3C2(C)C)=[N+](CCCCS(=O)(=O)[O-])c2ccc3ccccc3c21 [ICG, Indocyanine Green]
fluorescence quantum yield (QY) [2]: 7.8% | solubility in saline [3]: not readily soluble
